Assay results published in patent US20040162467A1, “Non-invasive transudate extraction” (priority 2001, published 2004).

How the values were obtained:
[1] = Other analytes: transdermal collection levels versus serum levels
[2] = Serum, transdermal and saliva samples from sheep before, during and after exercise; conditions: for Saliva: 20-min saliva lag; for Exudate: transdermal
Procedure: (§1) Sodium lauryl sulfate (40%) and either a commercial ultrasound conductive gel (Aquasonic, Parker Lab., NJ 07004, USA) or a 10% ethanol gel (the two gels were alternated in use) are employed. These gels are designated SLS-UG and SLS-EG respectively herein. Collected SLS-UG and SLS-EG are assayed as for blood. Saliva was divided into two samples. The first sample is stored at −20° C. and assayed as for blood. The second sample is assayed at the time of experimentation using the apparatus and immunosensors described above.
(§2) Student t tests, ANOVA or Wilcoxon test for paired samples are made as appropriate. Statistical significance is taken at P≦0.05 level. For analysis across the exercise stress, data is grouped into pre, during and post exercise values as actual sample times relative to the exercise for transdermal and blood obtained values. For pre, during and post exercise grouping of saliva samples, a 20-min lag was allowed relative to blood and transdermal values in sheep and a 30-min lag in human subjects.
In the remaining 10 sheep, experimentation took place on three separate days, each 3 days apart. On days of experimentation, animals were penned as above and the jugular vein of the animal was catheterised. Animals were left to rest for 50 min and then a single ultrasound application applied for 1 min as above. […] A series of electrosonophoresis collections were made concurrently with blood collection from the jugular vein, every 5 min for a further 1 h. Saliva samples were collected on every second blood sample (i.e. every 10 min). At completion of this time, a human shepherd, intermittently for 30 min, then ran the animals around a paddock. During this 30 min, each animal was briefly restrained manually and sampled on all three parameters every 10 min (i.e. three samples repeated three times). At the end of this period, animals were repenned and rested for 10 min, and a further saliva collection was made. Following this saliva collection for a further 1-h period, collection as above, prior to exercise, was repeated. In this manner for each animal, in each session, 27 blood and transdermal samples and 16 saliva samples were collected.

[3] = Serum, transdermal and saliva samples from human subjects before, during and after exercise; conditions: for Saliva: 30-min saliva lag; for Exudate: transdermal
Procedure: as §1, §2
Ten human volunteers (males aged 19-23, body weights 85-103 kg) were seated at 09:30 h. During the experiment, they were held at a room temperature of 20-22° C. An initial 1 min burst of ultrasound, as for the sheep (above), was made on the volar surface of the forearm, following application of SLS-EG mix. Ten minutes later, transdermal (electrosonophoresis) collection began from this site on this forearm, simultaneous to a venepuncture blood collection being made from the other. A saliva collection was then made, followed by a second, third and fourth saliva collection 20, 30 and 40 min after the blood sample. These measurements were repeated three times over 3 h (i.e. a total of three blood and transdermal samples and 12 saliva samples). In between each sampling series, subjects were allowed to walk around, eat lightly and drink water. Following this collection, the five volunteers exercised at moderate intensities, for 40 min (heart rates maintained in the range of 130-160 bpm) on a rowing machine, stopping briefly at 10, 20 and 30 min to give blood, transdermal and saliva samples. The subjects gave another set of samples at 40 min upon completion of rowing, then warmed down lightly with stretching exercises for a further 10 min and gave a further saliva sample at the end of this time. Two more saliva samples were collected at 60 and 70 min after exercise started. At the end of this time, sampling was repeated as above, prior to exercise, for a further 3 h. The entire procedure was repeated twice a week for 3 weeks (a total of six times). The distance rowed (m) represented the total work rate during the exercise.

[4] = Concentrations in transdermal exudate collected by different formats from sheep, versus serum
Procedure: as §1
Ten of these animals were used to develop the transdermal exudate collection technique. These 10 animals were penned as above, and a catheter inserted into the jugular vein using known techniques in the art. A mixture of sodium lauryl sulfate and either SLS-UG or SLS-EG was positioned onto the shaved area on the back of each animal. […] At the end of the hour, the remaining mix on the back was collected. The entire procedure was repeated three times. This mix was subject to assay (see below) for hormones and glucose content.
On the following day, one of the two gel mixes were rubbed on and, after 10 min, ultrasound (20 kHz, 10 W/cm^2, pulsed 5 s on/5 s off using an ITO Physiotherapy and rehabilitation unit, Tokyo 176-8605, Japan) applied for 1 min directly onto the mix. Ten minutes later, the mix was again collected and measured. This was then repeated with 2 min of the ultrasound application, and on a following day, the entire procedure repeated using the alternative gel mix on the shaved patch on the animal. Times greater than 2 min were not attempted due to potential risk of skin damage. Blood samples were collected at the time of ultrasound application and again at the time when the gel mix was also collected. The entire ultrasound procedure was then repeated on subsequent days with the addition of an application of a 9V electric field either side of the ultrasound head (in contact with skin).
On a separate day, in a further repeat of the above procedure; the collecting head (50) was positioned onto the ultrasound device. The ultrasound device was modified to ensure good coupling for use with the collecting head and delivery of needed parameters to the skin. The output of the device was reset to achieve the same energy and pulse delivery to the skin's surface as when the collecting head was not present, and the ultrasound device had been placed directly in contact with the gels (as described above). Three fluid flow rates into the collection chamber of the head were compared: 150, 300 and 600 μl/min. The effluent fluid was then assayed. On a final day, this was then repeated with the immunosensors positioned in the exit line from the chamber, with immunosensor measurement of the hormones made as has been described above.

[5] = Procalcitonin/TNF alpha and IL 6 (measure of bacterial sepsis): serum versus transdermal; format: in vivo
[6] = first group of subjects (no condition given)
[7] = second group of subjects (no condition given)
[8] = second group: females pregnant and lactating
[9] = sheep, SLS + 10% E + US 1 min + 9 V
[10] = sheep, SLS + 10% E + US 1 min + 9 V + Collection Head

## Cn1c(=O)c2c(ncn2C)n(C)c1=O [Caffeine]
[1]; [6]
  Serum levels: 1 to 5 mg/mL
  Transdermal collection levels: 0.2 to 0.8 mg/mL
[1]; second group (loading)
  Serum levels: 4 to 14 mg/mL (loading)
  Transdermal collection levels: 0.3 to 1.5 mg/mL

## C[C@]12CC[C@@H]3c4ccc(O)cc4CC[C@H]3[C@@H]1CC[C@@H]2O [Estradiol, 17-β estradiol]
[2]; 10 min Exercise
  Serum: 1.5 ± 1.1 mg/L
  Saliva: 0.038 ± 0.011 mg/L
  Exudate: 0.14 ± 0.08 mg/L
[2]; 20 min Exercise
  Serum: 1.3 ± 1.1 mg/L
  Saliva: 0.046 ± 0.009 mg/L
  Exudate: 0.12 ± 0.07 mg/L
[2]; 30 min Exercise
  Serum: 1.5 ± 1.3 mg/L
  Saliva: 0.03 ± 0.012 mg/L
  Exudate: 0.14 ± 0.09 mg/L
[2]; Postexercise
  Serum: 2.2 ± 1.1 mg/L
  Saliva: 0.052 ± 0.021 mg/L
  Exudate: 0.20 ± 0.06 mg/L
[2]; Preexercise
  Serum: 1.4 ± 1.2 mg/L
  Saliva: 0.05 ± 0.03 mg/L
  Exudate: 0.12 ± 0.06 mg/L
[3]; 0 min Exercise
  Saliva: 0.76 ± 0.38 ng/L
  Exudate: 1.53 ± 0.59 ng/L
[3]; 10 min Exercise
  Saliva: 0.75 ± 0.51 ng/L
  Exudate: 1.47 ± 0.94 ng/L
[3]; 20 min Exercise
  Saliva: 0.83 ± 0.39 ng/L
  Exudate: 1.74 ± 0.54 ng/L
[3]; 30 min Exercise
  Saliva: 0.85 ± 0.22 ng/L
  Exudate: 2.14 ± 0.86 ng/L
[3]; 40 min Exercise
  Saliva: 0.68 ± 0.26 ng/L
  Exudate: 1.53 ± 0.51 ng/L
[3]; Postexercise
  Saliva: 0.45 ± 0. ng/l
  Exudate: 1.11 ± 0.55 ng/L
[3]; Preexercise
  Saliva: 0.71 ± 0.25 ng/L
  Exudate: 1.23 ± 0.46 ng/L
[4]; in vivo
  Recovery as % of serum levels: 1%

## CCO [Ethanol, ethanol]
[1]; [6]
  Serum levels: 0.01 to 0.9 mg/mL
  Transdermal collection levels: 0.02 to 0.08 mg/mL
[1]; second group (loading)
  Serum levels: 0.4 to 1.4 mg/mL (loading)
  Transdermal collection levels: 0.05 to 0.11 mg/mL

## CC(=O)[C@H]1CC[C@H]2[C@@H]3CCC4=CC(=O)CC[C@]4(C)[C@H]3CC[C@]12C [Progesterone]
[1]; [6]
  Serum levels: 1e-06 to 1.2e-05 mg/mL
  Transdermal collection levels: 2e-07 to 1.1e-06 mg/mL
[1]; [7]
  Serum levels: 8e-06 to 2.5e-05 mg/mL
  Transdermal collection levels: 5e-07 to 2.8e-06 mg/mL

## CN[C@@H](C)[C@@H](O)c1ccccc1 [Pseudoephedrine, reference compound]
[1]; [6]
  Serum levels: 0.001 to 0.008 mg/mL
  Transdermal collection levels: 0.0002 to 0.0008 mg/mL
[1]; [8]
  Serum levels: 4-25 μg/ml females
  Transdermal collection levels: 0.0004 to 0.0021 mg/mL

## IL 6: measure of bacterial sepsis
[5]; subject number 20
  Serum: 0.3 to 11.5 ng/mL
  Transdermal: 0.04 to 1.2 ng/mL
[5]; subject number 30
  Serum: 0.1 to 0.3 ng/mL
  Transdermal: 0.03 to 0.05 ng/mL

## Insulin: endogenous hormone analyte measured in serum and exudate
[2]; 10 min Exercise
  Serum: 2.1e-07 ± 7e-08 mg/L
[2]; 20 min Exercise
  Serum: 1.2e-07 ± 5e-08 mg/L
  Exudate: 9e-09 ± 3e-09 mg/L
[2]; 30 min Exercise
  Exudate: 8e-09 ± 4e-09 mg/L
[2]; Postexercise
  Serum: 1.9e-07 ± 8e-08 mg/L
  Exudate: 1.4e-08 ± 8e-09 mg/L
[2]; Preexercise
  Exudate: 2.9e-08 ± 9e-09 mg/L
[3]; 0 min Exercise
  Serum: 13.1 ± 3.0 μIU/ml
[3]; 10 min Exercise
  Exudate: 0.90 ± 0.28 μIU/ml
[3]; 20 min Exercise
  Serum: 6.3 ± 3.8 μIU/ml
[3]; 30 min Exercise
  Serum: 5.4 ± 4.1 μIU/ml
  Exudate: 0.46 ± 0.21 μIU/ml
[3]; 40 min Exercise
  Exudate: 0.57 ± 0.33 μIU/ml
[3]; Postexercise
  Serum: 14.1 ± 5.5 μIU/ml
  Exudate: 1.15 ± 0.48 μIU/ml
[3]; Preexercise
  Exudate: 1.35 ± 0.90 μIU/ml
[4]; sheep, SLS + 10% E
  Serum: 0.18 ± 0.09 ng/mL
[4]; sheep, SLS + 10% E + US 1 min
  Exudate: 0.0004 ± 0.002 ng/mL
  Serum: 0.4 ± 0.15 ng/mL
[4]; [9]
  Exudate: 0.0064 ± 0.0041 ng/mL
  Serum: 0.21 ± 0.08 ng/mL
[4]; [10]
  Exudate: 0.013 ± 0.006 ng/mL
  Serum: 0.19 ± 0.11 ng/mL
[4]; sheep, SLS + UG
  Serum: 0.2 ± 0.6 ng/mL
[4]; sheep, gel mix with addition of ultrasound application
  Recovery as % of serum levels: 2%

## TNF alpha
[5]; subject number 20
  TNF alpha Trandermal: 0.5 to 12 ng/mL
  Transdermal: 0.03 to 1.4 ng/mL
[5]; subject number 30
  TNF alpha Trandermal: 0.1 to 0.5 ng/mL
  Transdermal: 0.005 to 0.01 ng/mL

B1: Prolactin: endogenous hormone analyte (protein, UniProt P01236 29-227, looked up)
Prolactin: LPICPGGAARCQVTLRDLFDRAVVLSHYIHNLSSEMFSEFDKRYTHGRGFITKAINSCHTSSLATPEDKEQAQQMNQKDFLSLIVSILRSWNEPLYHLVTEVRGMQEAPEAILSKAVEIEEQTKRLLEGMELIVSQVHPETKENEIYPVWSGLPSLQMADEESRLSAYYNLLHCLRRDSHKIDNYLKLLKCRIIHNNNC
[1]; [6]
  Serum levels: 1e-06 to 8e-06 mg/mL
  Transdermal collection levels: 2e-08 to 8e-07 mg/mL
[1]; [8]
  Serum levels: 4-100 ng/ml females
  Transdermal collection levels: 4e-07 to 1e-05 mg/mL

B2: Procalcitonin: measure of bacterial sepsis (protein, UniProt P01258 26-141, looked up)
pro-form: APFRSALESSPADPATLSEDEARLLLAALVQDYVQMKASELEQEQEREGSSLDSPRSKRCGNLSTCMLGTYTQDFNKFHTFPQTAIGVGAPGKKRDMSSDLERDHRPHVSMPQNAN
modifications: pro-form
notes: measure of bacterial sepsis
[5]; subject number 20
  Serum: 0.5 to 15 ng/mL
  Transdermal: 0.04 to 1.7 ng/mL
[5]; subject number 30
  Serum: 0.1 to 0.5 ng/mL
  Transdermal: 0.02 to 0.05 ng/mL
